In patent publication US4410516A, “1-N(αHydroxy-ω-aminoalkanoyl) derivatives of 5,3',4'-trideoxy- or 5,3', 4'-trideoxy-6'-N- methyl- or 5, 3', 4',6"-tetradeoxykannamyci B and production thereof” (Zaidan Hojin Biseibutsu Kagaku Kenkyu Kai, priority 1981, dated 1983):
Values after ≈ are worked out from the molar mass of the structure shown. Where two headings read alike, the source gives them in different places.

Tests used:
Serratia 4 = experiment: Minimum inhibitory concentration, serial dilution on nutrient agar; format: cell-based; details: 37° C., 18 hours incubation
Sarcina lutea PCI 1001 = experiment: as above; format: cell-based; details: Micrococcus luteus
Serratia SOU = experiment: as above; format: cell-based; details: 37° C., 18 hours incubation
[1] = system: Pseudomonas maltophilia GN907; experiment: as above; format: cell-based; details: Stenotrophomonas maltophilia, 37° C., 18 hours incubation
[2] = system: Pseudomonas aeruginosa K-Ps102; experiment: as above; format: cell-based
Providencia Pv 16 = experiment: as above; format: cell-based; details: PV16, 37° C., 18 hours incubation
[3] = system: Pseudomonas aeruginosa TI-13; experiment: as above; format: cell-based
[4] = system: Pseudomonas aeruginosa B-13; experiment: as above; format: cell-based; details: B13, 37° C., 18 hours incubation
[5] = system: Staphylococcus aureus Smith; experiment: as above; format: cell-based; details: 37° C., 18 hours incubation
[6] = system: Pseudomonas aeruginosa H9; experiment: as above; format: cell-based
Escherichia coli JR255 = experiment: as above; format: cell-based
[7] = system: Escherichia coli JR66/W677; experiment: as above; format: cell-based
[8] = system: Pseudomonas aeruginosa PST1; experiment: as above; format: cell-based
[9] = system: Shigella dysenteriae JS 11910; experiment: as above; format: cell-based; details: JS11910, 18 h
[10] = system: Salmonella enteritidis 1891; experiment: as above; format: cell-based; details: Salmonella enterica, 18 h
[11] = system: Pseudomonas aeruginosa A3; experiment: as above; format: cell-based; details: 37° C., 18 hours incubation
[12] = system: Klebsiella pneumoniae 22 #3038; experiment: as above; format: cell-based; details: 18 h
Proteus rettgeri GN466 = experiment: as above; format: cell-based; details: Providencia rettgeri
[13] = system: Escherichia coli K-12 LA 290 R64; experiment: as above; format: cell-based; details: K12LA290R64, 18 h
[14] = system: Pseudomonas aeruginosa 99; experiment: as above; format: cell-based
[15] = Acute toxicity by intravenous injection in mice; details: mouse, in vivo
Escherichia coli K-12 R5 = experiment: Minimum inhibitory concentration, serial dilution on nutrient agar; format: cell-based; details: K12R5, 18 h
[16] = system: Micrococcus flavus FDA 16; experiment: as above; format: cell-based; details: FDA16, 18 h
[17] = system: Escherichia coli K-12 ML 1629; experiment: as above; format: cell-based
Escherichia coli K-12 = experiment: as above; format: cell-based
[18] = system: Klebsiella pneumoniae PCI 602; experiment: as above; format: cell-based
Proteus vulgaris OX19 = experiment: as above; format: cell-based; details: 37° C., 18 hours incubation
[19] = system: Escherichia coli K-12 LA 290 R56; experiment: as above; format: cell-based; details: K12LA290R56, 18 h
[20] = system: Staphylococcus aureus AP01; experiment: as above; format: cell-based; details: 37° C., 18 hours incubation
Proteus rettgeri GN311 = experiment: as above; format: cell-based; details: Providencia rettgeri, 37° C., 18 hours incubation
Serratia marcescens = experiment: as above; format: cell-based; details: 37° C., 18 hours incubation
[21] = system: Pseudomonas aeruginosa 21-75; experiment: as above; format: cell-based; details: 2175, 37° C., 18 hours incubation
[22] = system: Escherichia coli K-12 ML 1410; experiment: as above; format: cell-based
[23] = system: Mycobacterium smegmatis ATCC 607; experiment: as above; format: cell-based; details: Mycolicibacterium smegmatis, ATCC607; nutrient agar, 37° C., 18 hours incubation; read-out: MIC
[24] = system: Pseudomonas aeruginosa GN315; experiment: as above; format: cell-based
[25] = PCI1001, nutrient agar, 37° C., 18 hours incubation, read-out: MIC
[26] = GN466, nutrient agar, 37° C., 18 hours incubation, read-out: MIC
[27] = Pseudomonas aeruginosa, 99, nutrient agar, 37° C., 18 hours incubation, read-out: MIC
[28] = PST1, nutrient agar, 37° C., 18 hours incubation, read-out: MIC

| Compound | MIC (Serratia 4) [µg/mL] | MIC (Serratia SOU) [µg/mL] | MIC [1] [µg/mL] | MIC (Providencia Pv 16) [µg/mL] | MIC [4] [µg/mL] | MIC [5] [µg/mL] | MIC [9] [µg/mL] | MIC [10] [µg/mL] | MIC [11] [µg/mL] | MIC [12] [µg/mL] | MIC [13] [µg/mL] | LD50 [15] [mg/kg] | MIC (Escherichia coli K-12 R5) [µg/mL] | MIC [16] [µg/mL] | MIC (Proteus vulgaris OX19) [µg/mL] | MIC [19] [µg/mL] | MIC [20] [µg/mL] | MIC (Proteus rettgeri GN311) [µg/mL] | MIC (Serratia marcescens) [µg/mL] | MIC [21] [µg/mL] | further results |
| --- | --- | --- | --- | --- | --- | --- | --- | --- | --- | --- | --- | --- | --- | --- | --- | --- | --- | --- | --- | --- | --- |
| NCC(O)C(=O)N[C@@H]1C[C@H](N)[C@@H](O[C@H]2O[C@H](CN)CC[C@H]2N)C[C@H]1O[C@H]1O[C@H](CO)[C@@H](O)[C@H](N)[C@H]1O (stereo partly drawn) [AHP-trideoxyKMB, 1-N-[(RS)-3-amino-2-hydroxypropionyl]-5,3',4'-trideoxykanamycin B] | 25 (≈ 47.8 µM) | > 100 | > 100 | 25 (≈ 47.8 µM) | 12.5 (≈ 23.9 µM) | < 0.2 | 6.25 (≈ 12 µM) | 6.25 (≈ 12 µM) | 0.78 (≈ 1.49 µM) | 6.25 (≈ 12 µM) | 1.56 (≈ 2.99 µM) | 25 to 50 | 100 (≈ 191 µM) | 6.25 (≈ 12 µM) | 0.78 (≈ 1.49 µM) | 1.56 (≈ 2.99 µM) | 0.78 (≈ 1.49 µM) | 25 (≈ 47.8 µM) | 25 (≈ 47.8 µM) | 12.5 (≈ 23.9 µM) | MIC (Sarcina lutea PCI 1001; [25]): 0.78 µg/mL (≈ 1.49 µM); MIC ([2]; KPS102, nutrient agar, 37° C., 18 hours incubation, read-out: MIC): 3.13 µg/mL (≈ 5.99 µM); MIC ([3]; TI13, nutrient agar, 37° C., 18 hours incubation, read-out: MIC): 3.13 µg/mL (≈ 5.99 µM); MIC ([6]; H9, nutrient agar, 37° C., 18 hours incubation, read-out: MIC): 3.13 µg/mL (≈ 5.99 µM); MIC (Escherichia coli JR255; JR255, nutrient agar, 37° C., 18 hours incubation, read-out: MIC): 1.56 µg/mL (≈ 2.99 µM); MIC ([7]; JR66/W677, nutrient agar, 37° C., 18 hours incubation, read-out: MIC): 3.13 µg/mL (≈ 5.99 µM); MIC ([8]; PST1, 18 h): 6.25 µg/mL (≈ 12 µM); MIC (Proteus rettgeri GN466; [26]): 3.13 µg/mL (≈ 5.99 µM); MIC [14, 27]: 3.13 µg/mL (≈ 5.99 µM); MIC ([17]; K12ML1629, nutrient agar, 37° C., 18 hours incubation, read-out: MIC): 3.13 µg/mL (≈ 5.99 µM); MIC (Escherichia coli K-12; K12, nutrient agar, 37° C., 18 hours incubation, read-out: MIC): 1.56 µg/mL (≈ 2.99 µM); MIC ([18]; PCI602, nutrient agar, 37° C., 18 hours incubation, read-out: MIC): 1.56 µg/mL (≈ 2.99 µM); MIC ([22]; K12ML1410, nutrient agar, 37° C., 18 hours incubation, read-out: MIC): 1.56 µg/mL (≈ 2.99 µM); MIC [23]: 0.2 µg/mL (≈ 0.383 µM); MIC ([24]; GN315, nutrient agar, 37° C., 18 hours incubation, read-out: MIC): 50 µg/mL (≈ 95.7 µM) |
| CNC[C@@H]1CC[C@@H](N)[C@@H](O[C@H]2C[C@@H](O[C@H]3O[C@H](CO)[C@@H](O)[C@H](N)[C@H]3O)[C@H](NC(=O)C(O)CN)C[C@@H]2N)O1 (stereo partly drawn) [AHP-trideoxyMKMB, 1-N-[(RS)-3-amino-2-hydroxypropionyl]-5,3',4'-trideoxy-6'-N-methylkanamycin B] | 12.5 (≈ 23.3 µM) | 50 (≈ 93.2 µM) | > 100 | 50 (≈ 93.2 µM) | 25 (≈ 46.6 µM) | < 0.2 | 6.25 (≈ 11.6 µM) | 6.25 (≈ 11.6 µM) | 0.78 (≈ 1.45 µM) | 3.13 (≈ 5.83 µM) | 3.13 (≈ 5.83 µM) | 50 to 100 | 12.5 (≈ 23.3 µM) | 3.13 (≈ 5.83 µM) | 0.78 (≈ 1.45 µM) | 3.13 (≈ 5.83 µM) | < 0.2 | 25 (≈ 46.6 µM) | 12.5 (≈ 23.3 µM) | 25 (≈ 46.6 µM) | MIC (Sarcina lutea PCI 1001; [25]): 0.78 µg/mL (≈ 1.45 µM); MIC ([2]; KPS102, 18 h): 3.13 µg/mL (≈ 5.83 µM); MIC ([3]; TI13, 18 h): 3.13 µg/mL (≈ 5.83 µM); MIC ([6]; H9, 18 h): 3.13 µg/mL (≈ 5.83 µM); MIC (Escherichia coli JR255; JR255, 18 h): 3.13 µg/mL (≈ 5.83 µM); MIC ([7]; JR66/W677, 18 h): 6.25 µg/mL (≈ 11.6 µM); MIC [8, 28]: 25 µg/mL (≈ 46.6 µM); MIC (Proteus rettgeri GN466; [26]): 12.5 µg/mL (≈ 23.3 µM); MIC [14, 27]: 12.5 µg/mL (≈ 23.3 µM); MIC ([17]; K12ML1629, 18 h): 3.13 µg/mL (≈ 5.83 µM); MIC (Escherichia coli K-12; K12, 18 h): 3.13 µg/mL (≈ 5.83 µM); MIC ([18]; PCI602, 18 h): 3.13 µg/mL (≈ 5.83 µM); MIC ([22]; K12ML1410, 18 h): 3.13 µg/mL (≈ 5.83 µM); MIC [23]: 0.39 µg/mL (≈ 0.727 µM); MIC ([24]; GN315, 18 h): 3.13 µg/mL (≈ 5.83 µM) |
| CNC[C@@H]1CC[C@@H](N)[C@@H](O[C@H]2C[C@@H](O[C@H]3O[C@H](CO)[C@@H](O)[C@H](N)[C@H]3O)[C@H](NC(=O)[C@@H](O)CCCN)C[C@@H]2N)O1 [AHV-trideoxyMKMB, 1-N-[(S)-5-amino-2-hydroxyvaleryl]-5,3',4'-trideoxy-6'-N-methylkanamycin B] | 12.5 (≈ 22.1 µM) | 50 (≈ 88.5 µM) | > 100 | 25 (≈ 44.3 µM) | 12.5 (≈ 22.1 µM) | < 0.2 | 6.25 (≈ 11.1 µM) | 3.13 (≈ 5.54 µM) | 0.39 (≈ 0.691 µM) | 3.13 (≈ 5.54 µM) | 1.56 (≈ 2.76 µM) | 50 to 100 | 6.25 (≈ 11.1 µM) | 3.13 (≈ 5.54 µM) | 0.78 (≈ 1.38 µM) | 1.56 (≈ 2.76 µM) | 0.39 (≈ 0.691 µM) | 100 (≈ 177 µM) | 12.5 (≈ 22.1 µM) | 12.5 (≈ 22.1 µM) | MIC (Sarcina lutea PCI 1001; PCI1001, 18 h): 1.56 µg/mL (≈ 2.76 µM); MIC ([2]; KPS102, 18 h): 1.56 µg/mL (≈ 2.76 µM); MIC ([3]; TI13, 18 h): 1.56 µg/mL (≈ 2.76 µM); MIC ([6]; H9, 18 h): 3.13 µg/mL (≈ 5.54 µM); MIC (Escherichia coli JR255; JR255, 18 h): 1.56 µg/mL (≈ 2.76 µM); MIC ([7]; JR66/W677, 18 h): 3.13 µg/mL (≈ 5.54 µM); MIC [8, 28]: 12.5 µg/mL (≈ 22.1 µM); MIC (Proteus rettgeri GN466; GN466, 18 h): 6.25 µg/mL (≈ 11.1 µM); MIC ([14]; Pseudomonas aeruginosa, 99, 18 h): 6.25 µg/mL (≈ 11.1 µM); MIC ([17]; K12ML1629, 18 h): 3.13 µg/mL (≈ 5.54 µM); MIC (Escherichia coli K-12; K12, 18 h): 1.56 µg/mL (≈ 2.76 µM); MIC ([18]; PCI602, 18 h): 1.56 µg/mL (≈ 2.76 µM); MIC ([22]; K12ML1410, 18 h): 3.13 µg/mL (≈ 5.54 µM); MIC [23]: 0.39 µg/mL (≈ 0.691 µM); MIC ([24]; GN315, 18 h): 3.13 µg/mL (≈ 5.54 µM) |
